Results on 8 compounds are retold here after patent publication US20210284659A1, “INHIBITORS OF BETA SECRETASE” (Janssen Pharmaceutica NV, priority 2017, published 2021).

Experiment [1] has as its target recombinant BACE1 protein (Homo sapiens, UniProt P56817). As to the kind of experiment: BACE1 biochemical FRET based assay. Particulars: 450 min at room temperature, 20 μM substrate, pH 5.0. An excerpt:
(§1) This assay is a Fluorescence Resonance Energy Transfer Assay (FRET) based assay. The substrate for this assay is an APP derived 13 amino acids peptide that contains the ‘Swedish’ Lys-Met/Asn-Leu mutation of the amyloid precursor protein (APP) beta-secretase cleavage site. This substrate also contains two fluorophores: (7-methoxycoumarin-4-yl) acetic acid (Mca) is a fluorescent donor with excitation wavelength at 320 nm and emission at 405 nm and 2,4-Dinitrophenyl (Dnp) is a proprietary quencher acceptor. […] Upon cleavage by BACE1, the fluorophore Mca is separated from the quenching group Dnp, restoring the full fluorescence yield of the donor. The increase in fluorescence is linearly related to the rate of proteolysis.
Briefly in a 384-well format recombinant BACE1 protein in a final concentration of 0.04 μg/ml is incubated for 450 minutes at room temperature with 20 μM substrate in incubation buffer (50 mM Citrate buffer pH 5.0, 0.05% PEG) in the presence of compound or DMSO. Next the amount of proteolysis is directly measured by fluorescence measurement (excitation at 320 nm and emission at 405 nm) at different incubation times (0, 30, 60, 90, 120 and 450 min). For every experiment a time curve (every 30 min between 0 min and 120 min) is used to determine the time where we find the lowest basal signal of the high control. The signal at this time (Tx) is used to subtract from the signal at 450 min. Results are expressed in RFU, as difference between T450 and Tx.
(§2) A best-fit curve is fitted by a minimum sum of squares method to the plot of % Controlmin versus compound concentration. From this an IC50 value (inhibitory concentration causing 50% inhibition of activity) can be obtained.

The test system of experiment [2] is Abeta 1-42 produced and secreted by human neuroblastoma SKNBE2 cells expressing wild type hAPP695. As to the kind of experiment: Cellular αLisa assay in SKNBE2 cells, Abeta 1-42. The experiment is classed as cell-based. Particulars: 18 hours incubation, read-out: Cellular αLisa assay in SKNBE2 cells Abeta 42 pIC50 (converted). As to the method:
In two αLisa assays the levels of Abeta total and Abeta 1-42 produced and secreted into the medium of human neuroblastoma SKNBE2 cells are quantified. The assay is based on the human neuroblastoma SKNBE2 expressing the wild type Amyloid Precursor Protein (hAPP695). The compounds are diluted and added to these cells, incubated for 18 hours and then measurements of Abeta 1-42 and Abeta total are taken. Abeta total and Abeta 1-42 are measured by sandwich αLisa. αLisa is a sandwich assay using biotinylated antibody AbN/25 attached to streptavidin coated beads and antibody Ab4G8 or cAb42/26 conjugated acceptor beads for the detection of Abeta total and Abeta 1-42 respectively. In the presence of Abeta total or Abeta 1-42, the beads come into close proximity. The excitation of the donor beads provokes the release of singlet oxygen molecules that trigger a cascade of energy transfer in the acceptor beads, resulting in light emission. Light emission is measured after 1 hour incubation (excitation at […] and emission at 615 nm).
as §2

Experiment [3] deals with T1, recombinant BACE2 protein (Homo sapiens, UniProt Q9Y5Z0).
T1 sequence (Q9Y5Z0 63-518): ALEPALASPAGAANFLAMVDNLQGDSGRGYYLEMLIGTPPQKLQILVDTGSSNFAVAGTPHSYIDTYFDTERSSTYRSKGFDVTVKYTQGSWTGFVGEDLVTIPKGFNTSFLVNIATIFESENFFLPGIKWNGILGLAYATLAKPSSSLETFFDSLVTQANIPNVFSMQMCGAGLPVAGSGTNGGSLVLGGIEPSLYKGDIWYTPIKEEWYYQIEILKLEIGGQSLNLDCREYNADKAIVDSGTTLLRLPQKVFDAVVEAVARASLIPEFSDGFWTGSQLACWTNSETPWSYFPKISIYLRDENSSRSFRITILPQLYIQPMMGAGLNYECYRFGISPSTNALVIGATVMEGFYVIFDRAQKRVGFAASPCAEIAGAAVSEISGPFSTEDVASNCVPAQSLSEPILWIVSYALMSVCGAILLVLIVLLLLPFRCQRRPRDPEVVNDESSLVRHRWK
As to the kind of experiment: BACE2 biochemical FRET based assay. Particulars: 450 min at room temperature, 10 μM substrate, pH 5.0.
Description: as §1, with “assay” for “assay is an APP derived 13 amino acids peptide that”, “the beta-secretase,” for “BACE1,”
Briefly in a 384-well format recombinant BACE2 protein in a final concentration of 0.4 μg/ml is incubated for 450 minutes at room temperature with 10 μM substrate in incubation buffer (50 mM Citrate buffer pH 5.0, 0.05% PEG, no DMSO) in the absence or presence of compound. Next the amount of proteolysis is directly measured by fluorescence measurement at T=0 and T=450 (excitation at 320 nm and emission at 405 nm). Results are expressed in RFU (Relative Fluorescence Units), as difference between T450 and TO.
as §2

Another experiment addresses β-secretase I (BACE1) (Homo sapiens, UniProt P56817). As to the kind of experiment: Automated (CyclOps) biochemical assay BACE1. The settings on record: 37 °C, 60 min, pH 5.0; read-out: Automated assay BACE1 pIC50 (converted). The method, then: (§3) Unless otherwise indicated all biochemicals were purchased from Sigma-Aldrich Chemical Company, Poole, Dorset, U.K. and non-aqueous solvents, of analytical or higher grade, were purchased from ThermoFisher Scientific, Loughborough, U.K. MilliQ water (Elix 5 & MilliQ Gradient; Merck Millipore) was used as the base aqueous solvent to make up the biological buffers. Base assay buffer was prepared by adding a 50 mM solution of citric acid (1.00244; Merck Biosciences) to stirring solution of 50 mM trisodium citrate (1.06448; Merck Biosciences) until a final pH of 5.0 was achieved. […] All assays were routinely carried out in 384-well assay plates (Costar 4514; Corning Life Sciences) and incubated at 37±1° C. for 60 min. prior to reading the endpoint fluorescence intensity. The (7-methoxyl coumarin-4-yl)acetic acid based substrate 0-secretase substrate VI (M2465; Bachem) was prepared as a 1 mM stock in 100% DMSO (D/4121/PB08; ThermoFisher). Assay buffer was prepared by adding DMSO to base buffer to a final concentration of 1% (vol./vol.). β-secretase I (18.64 μM; “BACE1”) and β-secretase II (4.65 μM; “BACE2”) were obtained from Janssen Pharmaceutica, Beerse, Belgium and were stored as frozen aliquots (˜20 μl) and thawed as required.
(§4) The CyclOps bioassay module consisted of a fraction collection station, a reagent station, liquid handling robotics, plate store and an integrated plate reader (SpectraMAX Paradigm, TUNE cartridge, SoftMax Pro v 6.3; Molecular Devices). The fraction collection station composed of a 384 well collection plate (P-384-240SQ-C; Axygen, Union City, Calif., USA) mounted on a H-portal carriage (Festo AG & Co. KG, Esslingen, Germany), a syringe drive and a two-way six port injection valve fitted with a 200 μl loop (VICI AG International, Schenkon Switzerland). The output of the injection valve was addressable to all the positions of a 384 well collection plate. The reagent station consisted of hydraulically cooled (10-12° C.) aluminium segments; each manufactured to house a SBS microtiter plate footprint. Independent addressable reagent stations were housed within these sections. Where required, custom aluminium housings were used to accommodate standard laboratory plastic ware (e.g. Eppendorf tubes, Falcon tubes, etc.). As and when required the reagent reservoirs were covered and the lids contained holes through which the Teflon-coated probe could access solutions. The reagents present on the liquid handling system were: • Probe wash solution (˜150 ml; 33.3:33.3:33.3 water:propan-2-ol (P/7508/17; ThermoFisher):methanol (M/4058/17; ThermoFisher) contained in a covered reagent reservoir (390007; Porvair Sciences Ltd., Leatherhead, UK). • Assay buffer solution • HPLC grade water • 40 nM BACE1 diluted in base buffer contained in a 5 ml Eppendorf tube (0030 119.401; Eppendorf) • 400 nM BACE2 diluted in 25 mM tris (648311; Merck Biosciences, Nottingham, U.K.), pH 7.5 containing 100 mM sodium chloride and 20% glycerol (16374; USB Corp., Cleveland, Ohio, USA) contained in a 1.5 ml Eppendorf tube (0030 000.919; Eppendorf) • 1 mM substrate in 100% DMSO contained in a 1.5 ml Eppendorf tube (maintained at ambient temperature) • Two empty 1.5 ml Eppendorf tubes
(§5) The liquid handling system composed of a LISSY system (Zinsser Analytik GmbH, Frankfurt, Germany) equipped with gripper arm and single teflon-coated stainless steel probe. […]

Another experiment has as its target T2, β-secretase II (BACE2) (Homo sapiens, UniProt Q9Y5Z0).
T2 sequence (Q9Y5Z0 63-518): T1 sequence (Q9Y5Z0 63-518)
As to the kind of experiment: Automated (CyclOps) biochemical assay BACE2. Particulars: 37 °C, 60 min, pH 5.0; read-out: Automated assay BACE2 pIC50 (converted). The method, then:
as §3, §4, §5

Sequence of recombinant BACE1 protein (P56817 46-501): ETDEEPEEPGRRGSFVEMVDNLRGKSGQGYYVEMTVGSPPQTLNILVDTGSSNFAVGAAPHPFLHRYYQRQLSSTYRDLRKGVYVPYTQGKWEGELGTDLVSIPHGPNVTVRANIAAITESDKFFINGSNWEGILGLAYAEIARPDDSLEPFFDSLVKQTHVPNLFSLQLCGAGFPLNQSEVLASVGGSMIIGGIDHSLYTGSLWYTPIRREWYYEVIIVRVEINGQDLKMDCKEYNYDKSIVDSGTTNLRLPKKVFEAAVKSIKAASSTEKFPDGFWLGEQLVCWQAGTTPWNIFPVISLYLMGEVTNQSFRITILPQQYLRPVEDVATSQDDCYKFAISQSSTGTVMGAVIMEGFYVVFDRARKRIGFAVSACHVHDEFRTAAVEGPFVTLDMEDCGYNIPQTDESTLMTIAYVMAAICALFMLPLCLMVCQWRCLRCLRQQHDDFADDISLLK
Sequence of β-secretase I (BACE1) (P56817 46-501): as above

For the compound `COc1ncc(CC2CCOCC2)c2c1C[C@]1(c3ccc(F)cc3F)N=C(N)SC[C@@H]1C2` [Compound 1], the results for the “Biochemical FRET based assay pIC50” value in experiment [1] and in experiment [3] were 8.52 and 8.18, respectively. The IC50 in experiment [2] was 0.759 nM.
In the case of `COc1ncc(Cc2c(C)noc2C)c2c1C[C@]1(c3ccc(F)cc3F)N=C(N)SC[C@@H]1C2` [Compound 2], the “Biochemical FRET based assay pIC50” value is reported as 8.23 in experiment [1] and 7.36 in experiment [3]. Besides, the IC50 in experiment [2] was 2.63 nM.
Regarding `COc1ncc(Cc2ccccc2C)c2c1C[C@]1(c3ccc(F)cc3F)N=C(N)SC[C@@H]1C2` [Compound 3], the figures for the IC50 on β-secretase I (BACE1) and at β-secretase II (BACE2) were 22.9 nM and 355 nM, respectively.
With `COc1ccc(Cc2cnc(OC)c3c2C[C@H]2CSC(N)=N[C@@]2(c2ccc(F)cc2F)C3)cc1` [Compound 5], the “Biochemical FRET based assay pIC50” value was determined as 7.64 in experiment [1] and 7.1 in experiment [3]. The IC50 in experiment [2] is 67.6 nM; on β-secretase I (BACE1) it was 49 nM; at β-secretase II (BACE2) it was 204 nM.
With `COc1cccc(Cc2cnc(OC)c3c2C[C@H]2CSC(N)=N[C@@]2(c2ccc(F)cc2F)C3)c1` [Compound 6], the IC50 was 75.9 nM at β-secretase I (BACE1) and 191 nM at β-secretase II (BACE2).
On the same counts, the results for `COc1ncc(Cc2cccc(Cl)c2)c2c1C[C@]1(c3ccc(F)cc3F)N=C(N)SC[C@@H]1C2` [Compound 7] are 61.7 nM and 110 nM.
Take `COc1cc(Cc2cnc(OC)c3c2C[C@H]2CSC(N)=N[C@@]2(c2ccc(F)cc2F)C3)cc(OC)c1` [Compound 8]: the IC50 is 195 nM at β-secretase I (BACE1) and 219 nM at β-secretase II (BACE2).
Take `COc1ncc(Cc2c(C)cccc2C)c2c1C[C@]1(c3ccc(F)cc3F)N=C(N)SC[C@@H]1C2` [Compound 9]: the “Biochemical FRET based assay pIC50” value in experiment [1] came out at 7.99; in experiment [3] it was 6.56. In experiment [2], the IC50 was 42.7 nM.
